Experimental data reported in patent publication US5580869A, “1N substituted pyrazino[2,3-c]-1,2,6-thiadiazine 2,2-dioxides” (Prodesfarma, S.A., priority 1992, dated 1996).
Read-outs that look alike come from different tables or passages of the source.

How the values were obtained:
[1] = test system: isolated guinea pig trachea; experiment: In vitro trachea relaxing activity (spontaneous tone in isolated trachea, method of Luduena); type: cell-based; conditions: Cavia porcellus, relative to maximum relaxation by noradrenaline 0.3 mcg/ml; for activity at 30 µg/mL: 30 mcg/ml
Experimental: The platelet antiaggregation activity was determined in vitro using platelet rich rabbit plasma and arachidonic acid (50 mcg/ml) as aggregation inducing agent. The results are given for tracheal relaxation as percentage inhibition of the tracheal tone relative to the maximum relaxation induced by noradrenaline (0.3 mcg/ml) and for the platelet aggregation as a percentage of the maximum effect observed with the proaggregation agent.

[2] = Mortality rate in the mouse after a single oral dose of 1600 mg/kg; conditions: in vivo, single oral dose 1600 mg/kg
Experimental: Likewise, to complete the superficial pharmacological profile, a check was made of the mortality rate in the mouse after oral administration of a single dose of 1600 mg/kg of each of the synthesized compounds (See Table 1).

rats = experiment: Diuretic and saluretic activity (urine volume and electrolyte excretion over 6 h), technique of Lipschits et al.; type: in vivo; conditions: rat; for response vs control in vivo at 20 mg/kg: 20 mg/kg po; for response vs control in vivo at 25 mg/kg: 25 mg/kg po; for response vs control in vivo at 10 mg/kg: 10 mg/kg po; for response vs control in vivo at 40 mg/kg: 40 mg/kg po
Experimental: The synthesized compounds were, therefore, subjected a pharmacological screening to evaluate a possible diuretic and salt excreting activity. Thus, an acute dose of each of the products of synthesis (20 or 25 mg/kg) was administered to rats and the amount of urine and the excretion of electrolytes was measured, following the technique described by Lipschits et al., with certain modifications (J. Pharmacol. Exp.Ther. 1943-79; 97-110).
The volume (ml/kg/6 h), the pH and the excretion of sodium, potassium and chloride ions (mEq/kg/6 h) were determined on the urine quantitatively collected over 6 hours, using triamterene and hydrochlorothiazide as reference diuretics.

[3] = (N) = not statistically significant vs control, read-out: Cl excretion, treated group/control group ratio
[4] = (N) = not statistically significant vs control, read-out: K excretion, treated group/control group ratio
[5] = (N) = not statistically significant vs control, read-out: Na excretion, treated group/control group ratio
[6] = (N) = not statistically significant vs control, read-out: Na/K
[7] = (N) = not statistically significant vs control, read-out: Volume urine, treated group/control group ratio
[8] = read-out: Cl excretion, treated group/control group ratio
[9] = read-out: K excretion, treated group/control group ratio
[10] = read-out: Na excretion, treated group/control group ratio
[11] = read-out: Volume urine, treated group/control group ratio

Row | Compound | activity at 30 µg/mL [1] [%] | mortality [2] [%] | response vs control in vivo at 20 mg/kg (rats; [3]) [%] | response vs control in vivo at 20 mg/kg (rats; [4]) [%] | response vs control in vivo at 20 mg/kg (rats; [5]) [%] | response vs control in vivo at 20 mg/kg (rats; [6]) [%] | response vs control in vivo at 20 mg/kg (rats; [7]) [%] | response vs control in vivo at 25 mg/kg (rats; [3]) [%] | response vs control in vivo at 25 mg/kg (rats; [4]) [%] | response vs control in vivo at 25 mg/kg (rats; [5]) [%] | response vs control in vivo at 25 mg/kg (rats; [7]) [%] | further results
1 | CCc1nc2c(nc1C)C(NN)=NS(=O)(=O)N2CC | 72 | – | – | – | – | – | – | – | – | – | – | –
2 | CCc1nc2c(nc1CC)N(CC)S(=O)(=O)N=C2N [1,6,7-triethyl, 4-amino-1,6,7-triethylpyrazino[2,3-c]-1,2,6-thiadiazine 2,2-dioxide] | – | 50 | 216 | 127 | 198 | 156 | 133 | – | – | – | – | –
3 | CCc1nc2c(nc1C)N(CC)S(=O)(=O)N=C2N [1,6-diethyl-7-methyl, 4-amino-1,6-diethyl-7-methylpyrazino[2,3-c]-1,2,6-thiadiazine 2,2-dioxide] | 95 | – | 89 | 91 | 56 | 62 | 104 | – | – | – | – | –
4 | CCc1nc2c(nc1C)C(NC)=NS(=O)(=O)N2CC [1,7-diethyl-4-(methylamino)-6-methyl, 1,7-diethyl-4-(methylamino)-6-methylpyrazino[2,3-c]-1,2,6-thiadiazine 2,2-dioxide] | 75 | – | 424 | 155 | 344 | 156 | 139 | – | – | – | – | –
5 | CCc1nc2c(nc1C)C(N)=NS(=O)(=O)N2CC [1,7-diethyl-6-methyl, 4-amino-1,7-diethyl-6-methylpyrazino[2,3-c]-1,2,6-thiadiazine 2,2-dioxide] | – | 37.5 | – | – | – | – | – | 787 | 179 | 823 | 197 | response vs control in vivo at 25 mg/kg (rats; read-out: Na/K): 460%
6 | Cc1nc2c(nc1C)N(CCO)S(=O)(=O)N=C2N [1-(2-hydroxyethyl)-6,7-dimethyl, 4-amino-1-(2-hydroxyethyl)-6,7-dimethylpyrazino[2,3-c]-1,2,6-thiadiazine 2,2-dioxide] | – | 0 | – | – | – | – | – | 141 | 189 | 203 | 106 | response vs control in vivo at 25 mg/kg (rats; read-out: Na/K): 107%
7 | Cc1nc2c(nc1C)N(CCN1CCOCC1)S(=O)(=O)N=C2N [1-(2-morpholinoethyl)-6,7-dimethyl, 4-amino-1-(2-morpholinoethyl)-6,7-dimethylpyrazino[2,3-c]-1,2,6-thiadiazine 2,2-dioxide] | – | 85 | – | – | – | – | – | 102 | 112 | 246 | 108 | response vs control in vivo at 25 mg/kg (rats; read-out: Na/K): 220%
8 | CCOC(=O)CN1c2nc(-c3ccccc3)cnc2C(N)=NS1(=O)=O [1-[(2-ethoxycarbonyl)-methyl]-7-phenyl, 4-amino-1-[(ethoxycarbonyl)methyl]-7-phenylpyrazino[2,3-c]-1,2,7-thiadiazine 2,2-dioxide] | 72 | – | – | – | – | – | – | – | – | – | – | –
9 | CCN1c2nc(C(F)(F)F)c(C(F)(F)F)nc2C(N)=NS1(=O)=O [1-ethyl-6,7-bis(trifluoromethyl), 4-amino-1-ethyl-6,7-bis(trifluoromethyl)pyrazino[2,3-c]-1,2,6-thiadiazine 2,2-dioxide] | – | 100 | – | – | – | – | – | 112 | 99 | 129 | 128 | response vs control in vivo at 25 mg/kg (rats; read-out: Na/K): 130%
10 | CCCN1c2nc(CC)c(C)nc2C(N)=NS1(=O)=O [1-ethyl-6-methyl-1-propyl, 4-amino-7-ethyl-6-methyl-1-propylpyrazino[2,3-c]-1,2,6-thiadiazine 2,2-dioxide] | – | 40 | 530 | 172 | 502 | 292 | 154 | – | – | – | – | –
11 | CCCc1nc2c(nc1C)C(N)=NS(=O)(=O)N2CC [1-ethyl-6-methyl-7-propyl, 4-amino-1-ethyl-6-methyl-7-propylpyrazino[2,3-c]-1,2,6-thiadiazine 2,2-dioxide] | – | 50 | 176 | 123 | 156 | 127 | 109 | – | – | – | – | –
12 | CCN1c2nc(-c3ccccc3)cnc2C(N)=NS1(=O)=O [1-ethyl-7-phenyl, 4-amino-1-ethyl-7-phenylpyrazino[2,3-c]-1,2,6-thiadiazine 2,2-dioxide] | 95 | – | 136 | 140 | 131 | 94 | 121 | – | – | – | – | –
13 | Cc1nc2c(nc1C)N(CCN(C(C)C)C(C)C)S(=O)(=O)N=C2N [4-amino-1-[2-(N,N-diisopropylamino)ethyl]-6,7-dimethylpyrazino[2,3-c]-1,2,6-thiadiazine 2,2-dioxide] | – | 62 | – | – | – | – | – | 156 | 94 | 193 | 84 | response vs control in vivo at 25 mg/kg (rats; read-out: Na/K): 205%
14 | CCCN1c2nc(C)c(C)nc2C(N)=NS1(=O)=O [6,7-dimethyl-1-propyl, 4-amino-6,7-dimethyl-1-propylpyrazino[2,3-c]-1,2,6-thiadiazine 2,2-dioxide] | – | 60 | 593 | 197 | 609 | 309 | 175 | – | – | – | – | –
15 | CCN1c2nc(C)c(Br)nc2C(N)=NS1(=O)=O [6-bromo-1-ethyl-7-methyl, 4-amino-6-bromo-1-ethyl-7-methylpyrazino[2,3-c]-1,2,6-thiadiazine 2,2-dioxide] | 88 | – | – | – | – | – | – | – | – | – | – | –
16 | CCc1nc2c(nc1C)C(N)=NS(=O)(=O)N2C [7-ethyl-1,6-dimethyl, 4-amino-7-ethyl-1,6-dimethylpyrazino[2,3-c]-1,2,6-thiadiazine 2,2-dioxide] | 95 | 0 | 471 | 177 | 385 | 218 | 152 | – | – | – | – | –
17 | Nc1cc(-c2ccncc2)c[nH]c1=O [Amrinone, reference compound] | – | – | – | – | – | – | – | – | – | – | – | activity at 3 µg/mL ([1]; 3 mcg/ml): 65%
18 | NS(=O)(=O)c1cc2c(cc1Cl)NCNS2(=O)=O [Hydrochlorothiazide, reference compound] | – | – | – | – | – | – | – | – | – | – | – | response vs control in vivo at 10 mg/kg (rats; [8]): 577%; response vs control in vivo at 10 mg/kg (rats; [9]): 217%; response vs control in vivo at 10 mg/kg (rats; [10]): 668%; response vs control in vivo at 10 mg/kg (rats; read-out: Na/K): 308%; response vs control in vivo at 10 mg/kg (rats; [11]): 166%; response vs control in vivo at 40 mg/kg (rats; [8]): 626%; response vs control in vivo at 40 mg/kg (rats; [9]): 265%; response vs control in vivo at 40 mg/kg (rats; [10]): 773%; response vs control in vivo at 40 mg/kg (rats; read-out: Na/K): 292%; response vs control in vivo at 40 mg/kg (rats; [11]): 179%
19 | Nc1nc(N)c2nc(-c3ccccc3)c(N)nc2n1 [Triamterene, reference compound] | – | – | 237 | 34 | 579 | – | 145 | 260 | 36 | 596 | 165 | –
